# US9120820B2, “Fluorescent molecular probes for use in assays that measure test compound competitive binding with SAM-utilizing proteins” (CAYMAN CHEMICAL COMPANY, INCORPORATED, priority 2011, dated 2015)
# Legend:
# Format in all cases: biochemical
# PRMT1 = molecular target: T1, PRMT1 (Homo sapiens, UniProt Q99873); assay: Radiometric methyltransferase assay, PRMT1; conditions: PRMT1 100 nM; compound 10 μM, 1 μM, or 0.1 μM; FIG. 13
# T1 construct: purchased Cayman
# Description: (§1) Reagents: Compound 16A was prepared by the method described in Example 4 and illustrated in FIG. 5. The Compounds 20A-iv and 20A-iii were prepared according to methods described in Example 6 and illustrated in FIG. 7. Enzymes were obtained from the Cayman Catalog with the exception of PRMT4 and PRMT6, which were produced in baculovirus and purified to near homogeneity using Ni-affinity chromatography. Human core histones were purified from HeLa nuclear pellet per the method of Coté et al. S-adenosylmethionine (SAM) was obtained from Sigma-Aldrich (Cat #A7007) and S-[methyl-3H]-SAM was obtained from Perkin-Elmer ([…]). Methods: […] To this was added enzyme diluted to provide a final assay concentration (GLP: 10 nM; PRMT1: 100 nM; SET7/9: 120 nM; PRDM9: 120 nM; PRMT4: 150 nM; PRMT6: 120 nM; G9a: 200 nM) and the compound was allowed to preincubate for 10 minutes at room temperature. […] Samples were mixed immediately after quenching and transferred to a 96-well GFC Uni-Filter microtiter filter plate (Perkin Elmer, Cat#6005174) that contained 50 μl of 20% TCA. Samples were allowed to precipitate for at least 5 minutes at room temperature. The samples were filtered onto the GFC membrane and washed four times with 100 μl of 10% TCA and once with 100 μl of 95% EtOH. To each well was added 25 μl of MicroScint-20 (Perkin-Elmer Cat#6013621) and samples were analyzed using a TopCount NXT microplate scintillation counter. The experiment was performed one time in duplicate for all compound concentrations tested and in triplicate for the vehicle and no enzyme controls. All data was analyzed in GraphPad Prism (v. 5.04).
# PRMT4 = molecular target: T2, PRMT4 (Homo sapiens, UniProt Q86X55); assay: Radiometric methyltransferase assay, PRMT4; conditions: PRMT4 150 nM; compound 10 μM, 1 μM, or 0.1 μM; FIG. 13
# T2 construct: made in house
# T2 sequence (Q86X55 1-608): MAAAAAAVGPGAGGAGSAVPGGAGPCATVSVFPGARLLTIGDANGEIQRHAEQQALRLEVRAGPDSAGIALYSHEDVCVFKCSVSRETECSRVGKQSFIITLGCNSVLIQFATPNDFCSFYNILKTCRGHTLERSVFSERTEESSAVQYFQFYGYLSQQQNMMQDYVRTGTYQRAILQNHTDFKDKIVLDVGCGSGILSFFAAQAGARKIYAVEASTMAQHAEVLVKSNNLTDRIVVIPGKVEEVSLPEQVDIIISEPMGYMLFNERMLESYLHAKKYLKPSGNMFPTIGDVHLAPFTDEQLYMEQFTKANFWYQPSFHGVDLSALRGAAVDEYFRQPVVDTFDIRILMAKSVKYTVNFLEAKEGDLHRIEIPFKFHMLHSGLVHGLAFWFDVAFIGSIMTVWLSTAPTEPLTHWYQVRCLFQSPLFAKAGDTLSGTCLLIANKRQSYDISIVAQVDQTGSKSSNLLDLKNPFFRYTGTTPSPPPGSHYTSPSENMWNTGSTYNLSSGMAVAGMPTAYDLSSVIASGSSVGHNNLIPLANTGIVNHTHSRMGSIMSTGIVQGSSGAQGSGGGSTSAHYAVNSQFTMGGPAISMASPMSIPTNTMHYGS
# Description: as §1
# G9a = molecular target: T3, G9a (Homo sapiens, UniProt Q96KQ7); assay: Radiometric methyltransferase assay, G9a; conditions: G9a 200 nM; compound 10 μM, 1 μM, or 0.1 μM; FIG. 13
# T3 construct: purchased Cayman 49010353
# T3 sequence (Q96KQ7 1-1210): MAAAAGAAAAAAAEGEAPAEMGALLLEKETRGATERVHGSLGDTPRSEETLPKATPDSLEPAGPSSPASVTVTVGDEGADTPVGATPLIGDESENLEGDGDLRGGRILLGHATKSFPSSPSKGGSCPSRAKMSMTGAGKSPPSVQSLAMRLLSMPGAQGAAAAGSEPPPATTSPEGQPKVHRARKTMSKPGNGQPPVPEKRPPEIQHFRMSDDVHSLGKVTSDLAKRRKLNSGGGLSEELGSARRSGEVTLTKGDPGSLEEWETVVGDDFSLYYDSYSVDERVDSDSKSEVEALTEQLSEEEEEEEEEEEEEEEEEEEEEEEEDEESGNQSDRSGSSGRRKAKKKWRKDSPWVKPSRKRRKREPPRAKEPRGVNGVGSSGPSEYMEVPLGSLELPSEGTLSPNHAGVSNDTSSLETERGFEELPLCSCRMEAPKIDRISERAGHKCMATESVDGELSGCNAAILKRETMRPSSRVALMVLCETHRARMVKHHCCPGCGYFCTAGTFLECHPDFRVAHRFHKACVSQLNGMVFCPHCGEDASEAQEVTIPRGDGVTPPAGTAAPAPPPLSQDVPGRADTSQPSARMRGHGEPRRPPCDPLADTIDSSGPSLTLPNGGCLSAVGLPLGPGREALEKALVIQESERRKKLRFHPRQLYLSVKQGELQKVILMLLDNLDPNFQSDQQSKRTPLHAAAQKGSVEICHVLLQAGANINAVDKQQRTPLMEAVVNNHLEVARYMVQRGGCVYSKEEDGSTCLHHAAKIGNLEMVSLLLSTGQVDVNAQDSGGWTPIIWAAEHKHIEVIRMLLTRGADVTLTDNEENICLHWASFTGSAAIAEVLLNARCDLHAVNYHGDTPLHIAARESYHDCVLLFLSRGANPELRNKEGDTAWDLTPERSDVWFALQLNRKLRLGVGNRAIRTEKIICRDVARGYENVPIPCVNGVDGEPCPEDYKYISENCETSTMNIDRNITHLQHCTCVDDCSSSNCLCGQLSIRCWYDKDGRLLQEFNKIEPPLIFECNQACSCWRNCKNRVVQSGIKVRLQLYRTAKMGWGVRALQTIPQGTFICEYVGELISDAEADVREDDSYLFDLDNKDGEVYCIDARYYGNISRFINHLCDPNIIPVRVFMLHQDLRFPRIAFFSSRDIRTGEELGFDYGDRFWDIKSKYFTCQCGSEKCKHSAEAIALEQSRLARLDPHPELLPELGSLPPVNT
# Description: as §1
# T1 sequence (Q99873 whole entry): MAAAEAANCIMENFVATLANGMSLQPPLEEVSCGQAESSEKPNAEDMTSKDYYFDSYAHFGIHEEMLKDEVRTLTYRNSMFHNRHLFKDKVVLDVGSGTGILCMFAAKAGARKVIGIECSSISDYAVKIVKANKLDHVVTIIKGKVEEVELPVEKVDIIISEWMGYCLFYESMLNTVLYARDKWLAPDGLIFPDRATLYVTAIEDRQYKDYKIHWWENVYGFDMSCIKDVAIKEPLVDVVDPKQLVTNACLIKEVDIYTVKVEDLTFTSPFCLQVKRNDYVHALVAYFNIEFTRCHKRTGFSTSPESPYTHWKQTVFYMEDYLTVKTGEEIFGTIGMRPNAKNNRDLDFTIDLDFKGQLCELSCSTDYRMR
inhibition of enzymatic activity (PRMT1),inhibition of enzymatic activity (PRMT4),inhibition of enzymatic activity (G9a),Compound
inhibits,inhibits,inhibits,"CSC[C@H]1O[C@@H](n2cnc3c(N)nc(NCCNC(=O)OC(C)(C)C)nc32)[C@H](O)[C@@H]1O [Compound 16A, tert-butyl (2-((6-amino-9-((2R,3R,4S,5S)-3,4-dihydroxy-5-((methylthio)methyl)tetrahydrofuran-2-yl)-9H-purin-2-yl)amino)ethyl)carbamate]"
did not show appreciable inhibition,did not show appreciable inhibition,did not show appreciable inhibition,"CCNC(=O)[C@H]1O[C@@H](n2cnc3c(N)nc(Cl)nc32)[C@H](O)[C@@H]1O [Compound 20A-iii, 2-chloroadenosine-5′-N-ethylcarboxamide]"
did not show appreciable inhibition,did not show appreciable inhibition,did not show appreciable inhibition,"CCNC[C@H]1O[C@@H](n2cnc3c(N)nc(Cl)nc32)[C@H](O)[C@@H]1O [Compound 20A-iv, 2-chloroadenosine-5′-N-ethylamine]"
